Experimental data reported in patent US8822526B2, “Synergistic pharmaceutical combination for the treatment of cancer” (Piramal Enterprises Limited, priority 2007, dated 2014).
Several values for one entry are separate records, joined by “and”; a condition that tells them apart may be missing. Equal values may be shown once. Read-outs that look alike come from different tables or passages of the source.

Experiments:
[1] = test system: human non-small cell lung carcinoma H-460 cells; assay: In vitro cytotoxicity assay (MTS)
Procedure: The cytotoxicity assay used was MTS (3-(4,5-dimethylthiazol-2-yl)-5-(3-carboxymethoxyphenyl)-2-(4-sulfophenyl)-2H-tetrazolium, inner salt) assay. The human non-small cell lung carcinoma H-460 cells were seeded at a density of 1500 cells/well in 180 μL of culture medium in 96-well plate and incubated overnight to allow the cells to adhere. Varying concentrations of the drugs contained in the combination were added to the wells and incubated for an appropriate period of time in humidified 5% CO2 incubator at 37° C. in case of a single drug exposure. […] Control wells were treated with a vehicle. At the end of the incubation period, the medium was removed from the wells and 20 μL of MTS (2 mg/mL in phosphate buffer saline, pH 6-6.5 and filter sterilized) and 1 μL of phenazine methosulfate (PMS, 3 mM in phosphate buffered saline, pH 7.3 and filter sterilized) was added to each well and the total volume was adjusted to 200 μL with complete medium. The plate was incubated for 2-4 hours in humidified 5% CO2 incubator at 37° C.
(§1) After completion of the drugs treatment i.e. at the end of 96 hours the plates were processed for MTS viability assay and the percent cytotoxicity was calculated as compared to control.
as §1
(§2) The human non-small cell lung carcinoma H-460 cells were seeded at a density of 1500 cells/well. […] After completion of the drugs treatment i.e. at the end of 120 hours the plates were processed for MTS viability assay and the percent cytotoxicity was calculated as compared to control.
as §2
The human non-small cell lung carcinoma H-460 cells were seeded at a density of 1500 cells/well. […] After completion of the drugs treatment i.e. at the end of 120 hours, the plates were processed for MTS viability assay and the percent cytotoxicity was calculated as compared to control.
(§3) After completion of the drugs treatment i.e. at the end of 48 hours the plates were processed for MTS viability assay and the percent cytotoxicity was calculated as compared to control.
The plates were processed for MTS viability assay and the percent cytotoxicity was calculated as compared to control.
as §3
The human non-small cell lung carcinoma H-460 cells were seeded at a density of 1500 cells/well. As per Table 16A the cells were first treated with either of the drugs alone i.e. with doxorubicin or flavopiridol alone. Doxorubicin treatment was for the first 24 hours followed by complete medium for 96 hours while in case of flavopiridol, the first 24 hours was in complete medium followed by flavopiridol for the next 96 hours. […] After completion of the drugs treatment i.e. at the end of 120 hours the plates were processed for MTS viability assay and the percent cytotoxicity was calculated as compared to control.
As per Table 16B the cells were first treated with either of the drugs alone i.e. with doxorubicin or flavopiridol alone. Flavopiridol treatment was for the first 96 hours followed by complete medium for 24 hours while in case of doxorubicin, the first 96 hours was in complete medium followed by doxorubicin for 24 hours. […] After completion of the drugs treatment i.e. at the end of 120 hours, the plates were processed for MTS viability assay and the percent cytotoxicity was calculated as compared to control.
The human non-small cell lung carcinoma H-460 cells were seeded at a density of 1500 cells/well.

NCI-H460/R = details: J. Chemother., 2006 February; 18(1) 66-73; cited from earlier work
[2] = test system: pancreatic cells (Panc-1); assay: Analysis of cell cycle distribution and flow cytometry (sub G1 apoptosis); assay type: cell-based, human; details: FIG. 3: 70 nM gemcitabine alone (24 hours); 300 nM compound A alone (72 hours); combination 70 nM gemcitabine (24 hours) followed by 300 nM compound A (72 hours)
[3] = test system: human pancreatic (Panc-1) cell line; assay: In vitro cytotoxicity assay (MTS); assay type: cell-based

COc1cccc2c1C(=O)c1c(O)c3c(c(O)c1C2=O)C[C@@](O)(C(=O)CO)C[C@@H]3O[C@H]1C[C@H](N)[C@H](O)[C@H](C)O1 [Doxorubicin]
% Cytotoxicity ([1]; Doxorubicin 30 nM alone for 120 hours): 2%
% Cytotoxicity ([1]; Doxorubicin 30 nM first 24 hours, then complete medium 96 hours, MTS at 120 hours): 0%
% Cytotoxicity ([1]; Doxorubicin 70 nM first 24 hours, then complete medium 96 hours, MTS at 120 hours): 14% and 12%
% Cytotoxicity ([1]; Doxorubicin 100 nM alone for 120 hours): 24%
% Cytotoxicity ([1]; Doxorubicin 100 nM first 24 hours, then complete medium 72 hours, MTS at 96 hours): 16%
% Cytotoxicity ([1]; Doxorubicin 100 nM first 24 hours, then complete medium 96 hours, MTS at 120 hours): 8%
% Cytotoxicity ([1]; Doxorubicin 100 nM first 24 hours, then complete medium 96 hours, MTS at 120 hours, listed as Doxo.): 16% and 9%
% Cytotoxicity ([1]; Doxorubicin 200 nM first 24 hours, then complete medium 96 hours, MTS at 120 hours): 17%
cytotoxicity at 0.03 µM ([1]; Homo sapiens, NCI-H460, 120 h, Doxorubicin 30 nM alone for 120 hours): 3%
cytotoxicity at 0.07 µM ([1]; Homo sapiens, NCI-H460, 120 h, Doxorubicin 70 nM alone for 120 hours): 28%
cytotoxicity at 0.1 µM ([1]; Homo sapiens, NCI-H460, 120 h, Doxorubicin 100 nM alone for 120 hours): 19%
cytotoxicity at 0.2 µM ([1]; Homo sapiens, NCI-H460, 120 h, Doxorubicin 200 nM alone for 120 hours): 48%
resistance of NCI-H460/R to doxorubicin (NCI-H460/R): 96.2 fold

CN1CC[C@@H](c2c(O)cc(O)c3c(=O)cc(-c4ccccc4Cl)oc23)[C@@H]1CO.Cl [Compound A, (+)-trans-2-(2-Chloro-phenyl)-5,7-dihydroxy-8-(2-hydroxymethyl-1-methyl-pyrrolidin-3-yl)-chromen-4-one hydrochloride]
apoptosis (sub G1 phase) [2]: 4.3%
IC30 concentration after 48 hours treatment ([1]; H-460 cells, 48 hours treatment, hydrochloride): 0.8 µM and ~0.7 µM
IC50 ([1]; Homo sapiens, NCI-H460, 48 h, read-out: IC50 concentration after 48 hours treatment, H-460 cells, 48 hours treatment): 1.2 µM
cytotoxicity at 0.8 µM ([1]; Homo sapiens, NCI-H460, 120 h, compound A 800 nM alone for 120 hours): 24%
cytotoxicity at 1.2 µM ([1]; Homo sapiens, NCI-H460, 120 h, compound A 1200 nM alone for 120 hours): 44%
% Cytotoxicity ([1]; human, 45 h, 1000 nM): 35%
% Cytotoxicity ([1]; human, 72 h, 800 nM): 17%
% Cytotoxicity ([1]; human, 72 h, 1200 nM): 36%
% Cytotoxicity ([1]; human, 96 h, 800 nM): 19%
IC50 ([1]; read-out: IC50 concentration after 48 hours treatment, H-460 cells, 48 hours treatment, hydrochloride): ~1 µM
IC30 concentration after 48 hours treatment ([3]; Panc-1 cells, 48 hours treatment): ~0.3 µM
% Cytotoxicity ([3]; complete medium 24 hours, then compound A 300 nM 72 hours): 34%
